In the NIST ThermoML archive (doi:10.1021/je800150h):
± gives the expanded uncertainty stated by the source.

Assay: mn = molality of the nth substance listed, in mol/kg
Conditions: 101 kPa, Liquid; for electrical conductivity: CyberScan CON500 conductivity meter

[Cl-].[Li+] [lithium chloride] + O
Conditions | electrical conductivity [S/m] | mass density [kg/m3] | viscosity [mPa·s]
268.1 K, m1 = 0.5 | – | 1013.4 ± 4.8 | 2.273 ± 0.11
268.1 K, m1 = 1 | – | 1024.4 ± 4.9 | 2.554 ± 0.12
268.1 K, m1 = 2 | – | 1047.1 ± 5 | 2.831 ± 0.13
268.1 K, m1 = 3 | – | 1067.8 ± 5.1 | 3.191 ± 0.15
268.1 K, m1 = 4.5 | – | 1095.9 ± 5.2 | 3.649 ± 0.17
268.1 K, m1 = 6 | – | 1121.7 ± 5.4 | 4.461 ± 0.2
268.1 K, m1 = 8 | – | 1155.4 ± 5.5 | 6.735 ± 0.29
268.1 K, m1 = 11 | – | 1200.2 ± 5.8 | 10.85 ± 0.44
268.1 K, m1 = 14 | – | 1240.7 ± 6 | 18.98 ± 0.77
268.1 K, m1 = 17.8 | – | 1288.4 ± 6.2 | 28.66 ± 1.2
273.1 K, m1 = 0.5 | – | 1013.2 ± 4.6 | 1.944 ± 0.091
273.1 K, m1 = 1 | – | 1024.4 ± 4.7 | 2.107 ± 0.099
273.1 K, m1 = 2 | – | 1046.9 ± 4.8 | 2.37 ± 0.11
273.1 K, m1 = 3 | – | 1067.4 ± 4.9 | 2.681 ± 0.12
273.1 K, m1 = 4.5 | – | 1095 ± 5 | 3.133 ± 0.14
273.1 K, m1 = 6 | – | 1121.2 ± 5.2 | 3.815 ± 0.17
273.1 K, m1 = 8 | – | 1153.7 ± 5.3 | 5.744 ± 0.25
273.1 K, m1 = 11 | – | 1198.7 ± 5.6 | 9.191 ± 0.38
273.1 K, m1 = 14 | – | 1239.1 ± 5.8 | 15.82 ± 0.64
273.1 K, m1 = 17.8 | – | 1286.4 ± 6 | 24.99 ± 1
278.1 K, m1 = 0.5 | 2.61 ± 0.21 | – | 1.663 ± 0.079
278.1 K, m1 = 1 | 4.64 ± 0.37 | 1024 ± 4.5 | 1.784 ± 0.084
278.1 K, m1 = 2 | 7.64 ± 0.61 | 1046.3 ± 4.6 | 2 ± 0.094
278.1 K, m1 = 3 | 9.59 ± 0.77 | 1066.4 ± 4.7 | 2.266 ± 0.11
278.1 K, m1 = 4.5 | 11.5 ± 0.92 | 1094.1 ± 4.9 | 2.69 ± 0.12
278.1 K, m1 = 6 | 12 ± 0.96 | 1119.8 ± 5 | 3.258 ± 0.15
278.1 K, m1 = 8 | 11.5 ± 0.92 | 1152.6 ± 5.2 | 4.899 ± 0.22
278.1 K, m1 = 11 | 9.37 ± 0.75 | 1197.1 ± 5.4 | 7.784 ± 0.33
278.1 K, m1 = 14 | 6.99 ± 0.56 | 1237.4 ± 5.6 | 13.17 ± 0.53
278.1 K, m1 = 17.8 | 4.71 ± 0.38 | 1284.2 ± 5.8 | 21.79 ± 0.87
283.1 K, m1 = 0.5 | 2.99 ± 0.24 | 1012.5 ± 4.2 | 1.424 ± 0.068
283.1 K, m1 = 1 | 5.2 ± 0.42 | 1023.3 ± 4.3 | 1.518 ± 0.072
283.1 K, m1 = 2 | 8.61 ± 0.69 | 1045.3 ± 4.4 | 1.701 ± 0.081
283.1 K, m1 = 3 | 11 ± 0.88 | 1065.4 ± 4.5 | 1.936 ± 0.091
283.1 K, m1 = 4.5 | 13 ± 1 | 1092.8 ± 4.7 | 2.303 ± 0.11
283.1 K, m1 = 6 | 13.6 ± 1.1 | 1118.8 ± 4.8 | 2.777 ± 0.13
283.1 K, m1 = 8 | 13.1 ± 1 | 1151.4 ± 5 | 4.17 ± 0.19
283.1 K, m1 = 11 | 10.7 ± 0.86 | 1195.6 ± 5.2 | 6.579 ± 0.28
283.1 K, m1 = 14 | 8.01 ± 0.64 | 1235.8 ± 5.4 | 10.97 ± 0.44
283.1 K, m1 = 17.8 | 5.52 ± 0.44 | 1282.2 ± 5.6 | 19.66 ± 0.78
288.15 K, m1 = 0.5 | 3.35 ± 0.27 | 1011.6 ± 4.1 | 1.243 ± 0.06
288.15 K, m1 = 1 | 5.87 ± 0.47 | 1022.2 ± 4.1 | 1.346 ± 0.065
288.15 K, m1 = 2 | 9.62 ± 0.77 | 1044.1 ± 4.2 | 1.502 ± 0.072
288.15 K, m1 = 3 | 12.3 ± 0.98 | 1064.3 ± 4.3 | 1.729 ± 0.082
288.15 K, m1 = 4.5 | 14.5 ± 1.2 | 1091.5 ± 4.5 | 2.034 ± 0.095
288.15 K, m1 = 6 | 15.2 ± 1.2 | 1117.4 ± 4.6 | 2.452 ± 0.11
288.15 K, m1 = 8 | 14.6 ± 1.2 | 1149.8 ± 4.8 | 3.602 ± 0.16
288.15 K, m1 = 11 | 12.1 ± 0.97 | 1194 ± 5 | 5.63 ± 0.25
288.15 K, m1 = 14 | 9.09 ± 0.73 | 1234.1 ± 5.2 | 9.142 ± 0.38
288.15 K, m1 = 17.8 | 6.45 ± 0.52 | 1280.2 ± 5.4 | 17.14 ± 0.68
293.15 K, m1 = 0.5 | 3.74 ± 0.3 | 1010.8 ± 3.9 | 1.087 ± 0.053
293.15 K, m1 = 1 | 6.53 ± 0.52 | 1021.4 ± 3.9 | 1.16 ± 0.057
293.15 K, m1 = 2 | 10.7 ± 0.86 | 1043 ± 4 | 1.308 ± 0.063
293.15 K, m1 = 3 | 13.7 ± 1.1 | 1063.1 ± 4.1 | 1.495 ± 0.071
293.15 K, m1 = 4.5 | 16.1 ± 1.3 | 1090.5 ± 4.3 | 1.777 ± 0.084
293.15 K, m1 = 6 | 16.9 ± 1.4 | 1116.1 ± 4.4 | 2.131 ± 0.099
293.15 K, m1 = 8 | 16.3 ± 1.3 | 1148.5 ± 4.6 | 3.199 ± 0.15
293.15 K, m1 = 11 | 13.6 ± 1.1 | 1192.5 ± 4.8 | 4.898 ± 0.22
293.15 K, m1 = 14 | 10.4 ± 0.83 | 1232.6 ± 5 | 7.966 ± 0.33
293.15 K, m1 = 17.8 | 7.44 ± 0.6 | 1278.3 ± 5.3 | 14.89 ± 0.59
298.15 K, m1 = 0.5 | 4.15 ± 0.33 | 1009.4 ± 4.1 | 0.97 ± 0.048
298.15 K, m1 = 1 | 7.29 ± 0.58 | – | 1.052 ± 0.052
298.15 K, m1 = 2 | 12 ± 0.96 | 1041.8 ± 4.2 | 1.165 ± 0.057
298.15 K, m1 = 3 | 15.2 ± 1.2 | 1061.8 ± 4.3 | 1.339 ± 0.064
298.15 K, m1 = 4.5 | 17.7 ± 1.4 | 1089.1 ± 4.5 | 1.586 ± 0.075
298.15 K, m1 = 6 | 18.7 ± 1.5 | 1114.6 ± 4.6 | 1.906 ± 0.089
298.15 K, m1 = 8 | 17.9 ± 1.4 | 1147 ± 4.8 | 2.8 ± 0.13
298.15 K, m1 = 11 | 15.1 ± 1.2 | 1190.9 ± 5 | 4.292 ± 0.19
298.15 K, m1 = 14 | 11.7 ± 0.94 | 1230.7 ± 5.2 | 6.899 ± 0.29
298.15 K, m1 = 17.8 | 8.5 ± 0.68 | 1276.4 ± 5.4 | 12.68 ± 0.51
303.15 K, m1 = 0.5 | 4.58 ± 0.37 | 1008.1 ± 4.2 | 0.866 ± 0.044
303.15 K, m1 = 1 | 8 ± 0.64 | 1018.7 ± 4.3 | 0.929 ± 0.046
303.15 K, m1 = 2 | 13.2 ± 1.1 | – | 1.047 ± 0.052
303.15 K, m1 = 3 | 16.7 ± 1.3 | 1060.3 ± 4.5 | 1.239 ± 0.06
303.15 K, m1 = 4.5 | 19.4 ± 1.6 | 1087.7 ± 4.6 | 1.422 ± 0.068
303.15 K, m1 = 6 | – | 1113.1 ± 4.8 | 1.713 ± 0.081
303.15 K, m1 = 8 | 19.7 ± 1.6 | 1145.4 ± 4.9 | 2.486 ± 0.12
303.15 K, m1 = 11 | 16.7 ± 1.3 | 1189.3 ± 5.2 | 3.812 ± 0.17
303.15 K, m1 = 14 | 13.1 ± 1 | 1228.9 ± 5.4 | 6.073 ± 0.26
303.15 K, m1 = 17.8 | 9.61 ± 0.77 | 1274.6 ± 5.6 | 11.54 ± 0.46
308.15 K, m1 = 0.5 | 4.99 ± 0.4 | 1006.6 ± 4.4 | 0.782 ± 0.04
308.15 K, m1 = 1 | 8.7 ± 0.7 | – | 0.834 ± 0.042
308.15 K, m1 = 2 | 14.4 ± 1.2 | 1038.7 ± 4.6 | 0.941 ± 0.047
308.15 K, m1 = 3 | 18.2 ± 1.5 | 1058.7 ± 4.7 | 1.083 ± 0.053
308.15 K, m1 = 4.5 | – | 1085.9 ± 4.8 | 1.28 ± 0.062
308.15 K, m1 = 6 | – | 1111.5 ± 5 | 1.532 ± 0.073
308.15 K, m1 = 8 | – | 1143.9 ± 5.1 | 2.256 ± 0.11
308.15 K, m1 = 11 | 18.3 ± 1.5 | 1187.8 ± 5.3 | 3.407 ± 0.15
308.15 K, m1 = 14 | 14.5 ± 1.2 | 1227.1 ± 5.6 | 5.332 ± 0.24
308.15 K, m1 = 17.8 | 10.9 ± 0.87 | 1272.8 ± 5.8 | 10.46 ± 0.42
313.15 K, m1 = 0.5 | 5.43 ± 0.43 | 1005.1 ± 4.6 | 0.722 ± 0.038
313.15 K, m1 = 1 | 9.45 ± 0.76 | 1015.8 ± 4.6 | 0.774 ± 0.04
313.15 K, m1 = 2 | 15.6 ± 1.3 | – | 0.866 ± 0.044
313.15 K, m1 = 3 | 19.7 ± 1.6 | 1056.9 ± 4.9 | 0.977 ± 0.049
313.15 K, m1 = 4.5 | – | 1084.4 ± 5 | 1.177 ± 0.057
313.15 K, m1 = 6 | – | 1110.1 ± 5.1 | 1.406 ± 0.067
313.15 K, m1 = 8 | – | 1142.3 ± 5.3 | 2.071 ± 0.097
313.15 K, m1 = 11 | 20 ± 1.6 | 1186.1 ± 5.5 | 3.091 ± 0.14
313.15 K, m1 = 14 | 16 ± 1.3 | 1225.3 ± 5.7 | 4.812 ± 0.22
313.15 K, m1 = 17.8 | 12.3 ± 0.98 | 1270.7 ± 6 | 9.741 ± 0.4
318.15 K, m1 = 0.5 | 5.85 ± 0.47 | 1003.5 ± 4.8 | 0.668 ± 0.035
318.15 K, m1 = 1 | 10.2 ± 0.82 | – | 0.714 ± 0.037
318.15 K, m1 = 2 | 16.8 ± 1.3 | 1035.2 ± 4.9 | 0.802 ± 0.041
318.15 K, m1 = 3 | – | 1055.5 ± 5 | 0.91 ± 0.046
318.15 K, m1 = 4.5 | – | 1083 ± 5.2 | 1.076 ± 0.053
318.15 K, m1 = 6 | – | 1108.4 ± 5.3 | 1.293 ± 0.062
318.15 K, m1 = 8 | – | 1140.7 ± 5.5 | 1.919 ± 0.09
318.15 K, m1 = 11 | – | 1184.3 ± 5.7 | 2.869 ± 0.13
318.15 K, m1 = 14 | 17.5 ± 1.4 | 1223.5 ± 5.9 | 4.412 ± 0.2
318.15 K, m1 = 17.8 | 13.6 ± 1.1 | 1268.9 ± 6.1 | 8.984 ± 0.37
323.15 K, m1 = 0.5 | 6.28 ± 0.5 | 1002.2 ± 4.9 | 0.625 ± 0.033
323.15 K, m1 = 1 | 11 ± 0.88 | 1012.5 ± 5 | 0.665 ± 0.035
323.15 K, m1 = 2 | 18.1 ± 1.4 | 1033.8 ± 5.1 | 0.747 ± 0.039
323.15 K, m1 = 3 | – | – | 0.859 ± 0.043
323.15 K, m1 = 4.5 | – | 1081.1 ± 5.4 | 1.003 ± 0.05
323.15 K, m1 = 6 | – | 1106.4 ± 5.5 | 1.194 ± 0.058
323.15 K, m1 = 8 | – | 1138.8 ± 5.7 | 1.742 ± 0.082
323.15 K, m1 = 11 | – | 1182.6 ± 5.9 | 2.69 ± 0.12
323.15 K, m1 = 14 | 19.1 ± 1.5 | 1221.8 ± 6.1 | 4.123 ± 0.19
323.15 K, m1 = 17.8 | 15.1 ± 1.2 | 1266.9 ± 6.3 | 8.265 ± 0.34
